From patent US6433012B1, “Method for inhibiting inflammatory disease” (Large Scale Biology Corp., priority 1998, dated 2002) come the findings set out here.

Data set [1] deals with angiogenesis induced by hFGF-B in the chick chorioallantoic membrane (CAM). The experiment in a line: Chick chorioallantoic membrane (CAM) assay, 14C-proline incorporation into collagenous protein. Further details: inhibition of hFGF-B-induced angiogenesis: dose or concentration left out as unconfirmed. The format is in vivo. The text has this:
This example illustrates the anti-angiogenic properties of methyl-3,5-diiodo-4-(4′-methoxyphenoxy)benzoate in the chick chorioallantoic membrane assay (CAM). The endpoint of the CAM assay was a quantitative determination of basement membrane biosynthesis by measuring the incorporation of ^14C-proline into Type IV collagenous protein.
The CAM assay involves the development of live chick embryos in Petri dishes under special sterile conditions. Therefore, only limited numbers of embryos can be used for evaluation of compounds in a single experiment. For this reason, two separate assays were conducted to test the three Biosource compounds at three concentrations per compound. In this assay, a known angiogenesis inhibitor, 2-methoxyestradiol (2-ME), was used as the positive control, and human fibroblast growth factor (hFGF) was used to induce angiogenesis in the CAM.
For testing, a minimum amount of acetone-methanol (1:1) was added to the test compounds for sterilization. The acetone-methanol mixture was then evaporated to dryness in a sterile hood. The compounds were dissolved dimethyl sulfoxide (DMSO) first and then diluted with saline containing methylcellulose. The final concentrations were 2% DMSO and 0.5% methylcellulose. All test solutions were added to each CAM in […].
Fresh fertile eggs were incubated for three days in a standard egg incubator. On Day 3, eggs were cracked under sterile conditions and embryos were placed in 20×100 mm plastic Petri dishes and cultivated at 37° C. in an embryo incubator with a water reservoir on the bottom shelf. Air was continuously bubbled into the water reservoir by using a small pump so that the humidity in the incubator was kept constant. Observations were made daily to ensure that all embryos were healthy. Dead or unhealthy embryos were removed from the incubator immediately to avoid contamination. On Day 9, a sterile silicone ring cup was placed on each CAM and […] of ^14C-proline with or without the test compound plus 2.5 ng of hFGF dissolved in saline containing 0.5% methylcellulose was delivered into each ring cup in a sterile hood. 2-ME was tested in parallel to serve as a reference compound. After addition of test materials, the embryos were returned to the incubator and cultivation continued. On Day 12, all embryos were transferred to a cold room at 4-10° C. The antiangiogenic effect of each test compound was determined by using the collagenase assay (Maragoudakis, et al., J. Pharm. Exp. Ther. 251:679-682 (1989)) to measure ^14C-proline incorporation into collagenous protein.
With the embryos placed on ice, a piece of CAM 10 mm in diameter was cut off under each ring cup and placed in a separate tube. To each tube was added 1.0 mL of phosphate-buffered saline (PBS, pH 7.3) containing 0.11 mg cycloheximide and 0.17 mg dipyridyl. The tubes were placed in a boiling water bath for 10 min and then cooled to room temperature. The PBS in each tube was discarded after centrifugation at 3000× g for 10 min. The CAM residue was washed once with 3 mL of 15% TCA and then three times with 3 mL of 5% TCA. Centrifugation was carried out as described above between each washing. At this point all non-protein bound radioactivity was removed, and the CAM containing the newly synthesized ^14C-collagenous protein was suspended in 0.9 mL of 0.1 N NaOH and 1.1 mL of HEPES buffer at pH 7.4. The pH of the sample was neutralized with 0.8 N HCl, using phenol red as indicator.
To digest the ^14C-collagenous protein, 7.5 units of collagenase and 500 nmol of calcium chloride in […] of HEPES buffer was added to the above samples, and mixtures were incubated at 37° C. for 4 h. The reaction was stopped by adding 1.0 mL of 20% TCA containing 5 mg of tannic acid into each tube. After vortex mixing, the samples were centrifuged at 3000× g for 10 min. […]

Data set [2] concerns TNF-α mRNA in murine macrophage PU5-1.8 cell line. The experiment in a line: TNF-α mRNA in LPS-stimulated macrophages (Northern blot). The format is cell-based. How it is done: The murine macrophage PU5-1.8 cell line was purchased from the American Type Culture Collection (ATCC, Rockville, Md.). Cells were grown in DMEM medium supplemented with […], 0.1 mM nonessential amino acids, 2 mM glutamine and 5% fetal bovine serum (Life Technologies, Staten Island, N.Y.). Cells were maintained in a humidified atmosphere of 5% CO2-95% air at 37° C. Cells were passages twice weekly by firmly tapping the side of the flask to dislodge the adherent cells. Both nonadherent and adherent cells were passages. Exponentially growing cells were seeded at 5×10 ^5/mL, 4mL per 60-mm dish 24 h prior to the experiment. Test compounds were delivered in 1 mL volumes of the medium added to each dish at the start of the experiment. All dishes were incubated at 37° C. in 5% CO2-95% air for 3 h.
Total RNA was isolated by the guanidinium-cesium chloride method as described in N. S. Waleh, J. Gallo, T. D. Grant, B. J. Murphy, R. H. Kramer and R. M. Sutherland. (1994) “Selective downregulation of integrin receptors in spheroids of squamous cell carcinoma” Cancer Res., 54:838-843. Five to 10 μg of total RNA was electrophoresed in 1% agarose gels containing 6% formaldehyde. Following electrophoresis, gels were stained with ethidium bromide to visualize the positions of 28S and 18S RNA. The RNAs were then transferred to nylon membranes (Amersham Hybond N) by capillary blotting and fixed to the filter by exposure to UV light. The blots were probed with ^32P-labeled cDNA sequences of human TNF-α obtained from the American Type Culture Collection (ATCC). The TNF-α cDNA was a 1.1 kb PstI fragment of plasmid pE4 in E. coli MM294 (ATCC 39894). Hybridizations were carried out at 42° C. in 50% formamide, 5×SSC, 5×Denhardt's solution, 0.1% SDS, and 0.3 mg/mL salmon sperm DNA. Filters were washed by 1×SSC, 0.1% SDS, twice at room temperature for 15 min and once at 55° C. in 0.1×SSC, 0.1% SDS for 1 hr. Filters were exposed to X-ray film at −70° C. using an intensifying screen (Coronex Hi-Plus).
Hybridized bands were quantified by analyzing the images obtained by using a video densitometer (Applied Imaging Corporation, Santa Clara, Calif.). Film densities were calibrated using an optical-density wedge.

The subject of data set [3] is MCF-7 human breast carcinoma cells. The experiment in a line: Chromosome condensation / prometaphase arrest. The format is cell-based. As to conditions: 1 μM for 24 h.
Another data set has as its system purified tubulin. As to conditions: as a function of colchicine or vinblastine concentration. An excerpt: Tubulin-binding antimitotic drugs interact with the protein at diverse sites.
[4] abbreviates: Table 1 experiment, dose 8.3 μg/CAM.
Setting [5] is: Table 1 experiment, dose 25 μg/CAM.
Where [6] appears, read: Table 1 experiment, dose 75 μg/CAM.
[7] abbreviates: Table 2 experiment, dose 8.3 μg/CAM.
[8] abbreviates: Table 2 experiment, dose 25 μg/CAM.
The mark [9] stands for this setting: Table 2 experiment, dose 75 μg/CAM.

Marks after values point to notes of the source that are not given here.

As for `COc1cc2c(cc1O)CC[C@@H]1[C@@H]2CC[C@]2(C)[C@@H](O)CC[C@@H]12` [2-Methoxyestradiol, 2-methoxyestradiol, reference compound], the “inhibition of hFGF-B-induced angiogenesis” value in data set [1] is on record as 38%. Further, the % Inhibition (commonly the change of the read-out against control, counted positive when it falls) in data set [1] (setting [4]) is recorded as 9%; in data set [1] (setting [5]), 20%; in data set [1] (setting [6]), 38%; in data set [1] (setting [7]) it was 6%; in data set [1] (setting [8]), 35%; in data set [1] (setting [9]), 38%. The “^14C-Proline Incorporated into Collagenous Protein (mean ± S.E.)” value is recorded as 5711 ± 1469 cpm/mg-protien in data set [1] (setting [4]); 5068 ± 1609 cpm/mg-protien in data set [1] (setting [5]); 3875 ± 891 cpm/mg-protien in data set [1] (setting [6]); 10499 ± 1372 cpm/mg-protien in data set [1] (setting [7]); 7303 ± 1424 cpm/mg-protien in data set [1] (setting [8]); 6984 ± 1022^b cpm/mg-protien in data set [1] (setting [9]).
Regarding `COc1cc2c(c(OC)c1OC)-c1ccc(OC)c(=O)cc1[C@@H](NC(C)=O)CC2` [colchicine, reference compound], in data set [2] (10 μM added to LPS (100 ng/mL) treated cultures, 3 h), the “inhibition of TNF-α mRNA accumulation” value is listed as 68%. In addition, the “effect on TNF-α mRNA expression, compound only” value in data set [2] (10 μM, without LPS, 3 h) was “no effect”. Besides, in data set [2] (cells treated with different concentrations), the “total RNA integrity” value is “intact”. Further, the “chromosome condensation (prometaphase arrest)” value in data set [3] is listed as “produced identical chromosome condensation patterns”.
As for `CC[C@]1(O)C[C@@H]2CN(CCc3c([nH]c4ccccc34)[C@@](C(=O)OC)(c3cc4c(cc3OC)N(C)[C@H]3[C@@](O)(C(=O)OC)[C@H](OC(C)=O)[C@]5(CC)C=CCN6CC[C@]43[C@@H]65)C2)C1` [vinblastine], the “effect of competitor on binding of 14C-labeled BTO-956 to tubulin” value in the data set with purified tubulin is “had no effect”.
